Experimental data reported in patent US9221814B2, “Heterocyclic guanidine F1F0-atpase inhibitors and therapeutic uses thereof” (Lycera Corporation, priority 2012, dated 2015).
Like-named read-outs stand apart in the source and are kept apart here.

Columns and labels:
F1F0-ATPase = target: T1, F1F0-ATPase (Bos taurus, UniProt P13621); assay: Inhibition of F1F0-ATPase activity in synthesizing ATP (ATP synthesis inhibition); format: biochemical; conditions: detection limit IC50=16 μM, read-out: ATP Syn IC50
T1 construct: from tissue
Method: (§1) Exemplary compounds described in above Examples were tested for activity against F1F0-ATPase by measuring the ability of the compounds to inhibit ATP synthesis. In addition, the compounds were assessed for cytotoxicity in Ramos cells. Inhibition of F1F0-ATPase activity in synthesizing ATP and cytotoxicity in Ramos cells were measured according to the procedures described in K. M. Johnson et al. Chemistry & Biology 2005, 12, 485-496.

Ramos cells = assay: Cytotoxicity in Ramos cells; format: cell-based; conditions: detection limit EC50=16 μM, read-out: Ramos Cell EC50
Method: as §1

SMILES	IC50 (F1F0-ATPase)	EC50 (Ramos cells)	EC50 (Ramos cells; Homo sapiens)
COc1ccc(-c2cc(N/C(=N\C(=O)c3cn(C)nc3C(F)(F)F)Nc3ccc(C(C)(C)C)cc3)[nH]n2)cc1F [Compound A-148]	5 to 16 µM	5 to 16 µM	–
CC(C)N/C(=N/C(=O)c1cn(C)nc1C(F)(F)F)Nc1cc(-c2ccc(O)cc2F)n[nH]1 [Compound A-149]	> 16 µM	> 16 µM	–
Cn1cc(C(=O)N=C(Nc2ccc(F)cc2)Nc2cc(-c3ccc(O)cc3F)n[nH]2)c(C(F)(F)F)n1 [Compound A-150]	< 5 µM	–	< 5 µM
Cn1cc(C(=O)/N=C(/Nc2ccc(C(C)(C)C)cc2)Nc2cc(-c3ccc(O)cc3F)n[nH]2)c(C(F)(F)F)n1 [Compound A-151]	< 5 µM	< 5 µM	–
CC(C)N/C(=N/C(=O)c1cn(C)nc1C(F)(F)F)Nc1cc(-c2ccc(O)c(F)c2)n[nH]1 [Compound A-152]	5 to 16 µM	5 to 16 µM	–
Cn1cc(C(=O)/N=C(\Nc2cc(-c3ccc(O)c(F)c3)n[nH]2)Nc2ccc(F)cc2Cl)c(C(F)(F)F)n1 [Compound A-153]	< 5 µM	< 5 µM	–
COc1ccc(-c2cc(N/C(=N\C(=O)c3cn(C)nc3C(F)(F)F)Nc3cccc(Cl)c3)[nH]n2)cc1F [Compound A-154]	< 5 µM	> 16 µM	–
COc1ccc(-c2cc(NC(=NC(=O)c3cn(C)nc3C(F)(F)F)Nc3ccc(F)c(Cl)c3)[nH]n2)cc1F [Compound A-155]	< 5 µM	–	> 16 µM
COc1ccc(-c2cc(N/C(=N\C(=O)c3cn(C)nc3C(F)(F)F)Nc3ccc(F)cc3)[nH]n2)cc1F [Compound A-156]	< 5 µM	> 16 µM	–
COc1ccc(-c2cc(N/C(=N\C(=O)c3cn(C)nc3C(F)(F)F)Nc3cccc(F)c3)[nH]n2)cc1F [Compound A-157]	< 5 µM	5 to 16 µM	–
COc1ccc(-c2cc(N/C(=N\C(=O)c3cn(C)nc3C(F)(F)F)Nc3ccccc3C(C)(C)C)[nH]n2)cc1F [Compound A-158]	< 5 µM	> 16 µM	–
COc1ccc(-c2cc(N/C(=N\C(=O)c3cn(C)nc3C(F)(F)F)Nc3ccccc3C(F)(F)F)[nH]n2)cc1F [Compound A-159]	5 to 16 µM	> 16 µM	–
COc1ccc(-c2cc(N/C(=N\C(=O)c3cn(C)nc3C(F)(F)F)Nc3cc(Cl)ccc3F)[nH]n2)cc1F [Compound A-160]	5 to 16 µM	> 16 µM	–
COc1ccc(-c2cc(N/C(=N\C(=O)c3cn(C)nc3C(F)(F)F)Nc3ccc(F)cc3F)[nH]n2)cc1F [Compound A-161]	< 5 µM	> 16 µM	–
Cn1cc(C(=O)/N=C(/Nc2cccc(Cl)c2)Nc2cc(-c3ccc(O)c(F)c3)n[nH]2)c(C(F)(F)F)n1 [Compound A-162]	< 5 µM	< 5 µM	–
Cn1cc(C(=O)/N=C(/Nc2ccc(F)c(Cl)c2)Nc2cc(-c3ccc(O)c(F)c3)n[nH]2)c(C(F)(F)F)n1 [Compound A-163]	< 5 µM	< 5 µM	–
Cn1cc(C(=O)/N=C(/Nc2ccc(F)cc2)Nc2cc(-c3ccc(O)c(F)c3)n[nH]2)c(C(F)(F)F)n1 [Compound A-164]	< 5 µM	< 5 µM	–
Cn1cc(C(=O)/N=C(/Nc2ccc(C(C)(C)C)cc2)Nc2cc(-c3ccc(O)c(F)c3)n[nH]2)c(C(F)(F)F)n1 [Compound A-165]	< 5 µM	< 5 µM	–
Cn1cc(C(=O)/N=C(/Nc2cccc(F)c2)Nc2cc(-c3ccc(O)c(F)c3)n[nH]2)c(C(F)(F)F)n1 [Compound A-166]	< 5 µM	< 5 µM	–
Cn1cc(C(=O)/N=C(\Nc2cc(-c3ccc(O)c(F)c3)n[nH]2)Nc2ccccc2C(C)(C)C)c(C(F)(F)F)n1 [Compound A-167]	< 5 µM	< 5 µM	–
Cn1cc(C(=O)N=C(Nc2cc(-c3ccc(O)c(F)c3)n[nH]2)Nc2cc(Cl)ccc2F)c(C(F)(F)F)n1 [Compound A-168]	< 5 µM	–	5 to 16 µM
Cn1cc(C(=O)/N=C(\Nc2cc(-c3ccc(O)c(F)c3)n[nH]2)Nc2ccc(F)cc2F)c(C(F)(F)F)n1 [Compound A-169]	< 5 µM	< 5 µM	–
Cn1cc(C(=O)/N=C(/Nc2cccc(O)c2)Nc2cc(-c3ccc(O)c(F)c3)n[nH]2)c(C(F)(F)F)n1 [Compound A-170]	5 to 16 µM	< 5 µM	–
Cn1cc(C(=O)N=C(Nc2cc(-c3ccc(O)c(F)c3)n[nH]2)Nc2ccccc2Cl)c(C(F)(F)F)n1 [Compound A-171]	< 5 µM	–	< 5 µM

SMILES	IC50 (F1F0-ATPase)	EC50 (Ramos cells)	EC50 (Ramos cells; Homo sapiens)
Cn1cc(C(=O)/N=C(/Nc2ccc(F)c(C#N)c2)Nc2cc(-c3ccc(O)c(F)c3)n[nH]2)c(C(F)(F)F)n1 [Compound A-172]	5 to 16 µM	> 16 µM	–
Cc1cc(F)ccc1N/C(=N/C(=O)c1cn(C)nc1C(F)(F)F)Nc1cc(-c2ccc(O)c(F)c2)n[nH]1 [Compound A-173]	< 5 µM	< 5 µM	–
Cn1cc(C(=O)/N=C(/Nc2cc(F)cc(F)c2)Nc2cc(-c3ccc(O)c(F)c3)n[nH]2)c(C(F)(F)F)n1 [Compound A-174]	< 5 µM	< 5 µM	–
CC(C)c1ccc(N/C(=N/C(=O)c2cn(C)nc2C(F)(F)F)Nc2cc(-c3ccc(O)c(F)c3)n[nH]2)cc1 [Compound A-175]	5 to 16 µM	< 5 µM	–
Cn1cc(C(=O)/N=C(/Nc2ccc(F)c(F)c2)Nc2cc(-c3ccc(O)c(F)c3)n[nH]2)c(C(F)(F)F)n1 [Compound A-176]	< 5 µM	< 5 µM	–
Cn1cc(C(=O)/N=C(\Nc2cc(-c3ccc(O)c(F)c3)n[nH]2)Nc2cccc(Cl)c2F)c(C(F)(F)F)n1 [Compound A-177]	< 5 µM	< 5 µM	–
Cn1cc(C(=O)/N=C(\Nc2cc(-c3cc(O)ccc3F)n[nH]2)NC(C)(C)C)c(C(F)(F)F)n1 [Compound A-178]	5 to 16 µM	5 to 16 µM	–
CC(C)CN/C(=N/C(=O)c1cn(C)nc1C(F)(F)F)Nc1cc(-c2cc(O)ccc2F)n[nH]1 [Compound A-179]	< 5 µM	> 16 µM	–
Cn1cc(C(=O)/N=C(/Nc2cc(F)cc(Cl)c2)Nc2cc(-c3cc(O)ccc3F)n[nH]2)c(C(F)(F)F)n1 [Compound A-180]	5 to 16 µM	< 5 µM	–
Cn1cc(C(=O)/N=C(\Nc2cc(-c3cc(O)ccc3Cl)n[nH]2)NC(C)(C)C)c(C(F)(F)F)n1 [Compound A-181]	< 5 µM	5 to 16 µM	–
CC(C)CNC(=NC(=O)c1cn(C)nc1C(F)(F)F)Nc1cc(-c2cc(O)ccc2Cl)n[nH]1 [Compound A-182]	< 5 µM	–	5 to 16 µM
Cn1cc(C(=O)/N=C(/Nc2cc(F)cc(Cl)c2)Nc2cc(-c3cc(O)ccc3Cl)n[nH]2)c(C(F)(F)F)n1 [Compound A-183]	< 5 µM	5 to 16 µM	–
Cc1c(Cl)cccc1N/C(=N/C(=O)c1cn(C)nc1C(F)(F)F)Nc1cc(-c2ccc(O)c(F)c2)n[nH]1 [Compound A-184]	< 5 µM	< 5 µM	–
Cc1ccccc1N/C(=N/C(=O)c1cn(C)nc1C(F)(F)F)Nc1cc(-c2ccc(O)c(F)c2)n[nH]1 [Compound A-185]	< 5 µM	< 5 µM	–
Cc1ccc(Cl)cc1N/C(=N/C(=O)c1cn(C)nc1C(F)(F)F)Nc1cc(-c2ccc(O)c(F)c2)n[nH]1 [Compound A-186]	5 to 16 µM	> 16 µM	–
Cc1cc(Cl)ccc1N/C(=N/C(=O)c1cn(C)nc1C(F)(F)F)Nc1cc(-c2ccc(O)c(F)c2)n[nH]1 [Compound A-187]	< 5 µM	< 5 µM	–
Cc1oncc1C(=O)/N=C(\Nc1cc(-c2ccc(F)cc2)n[nH]1)NC(C)(C)C [Compound A-188]	< 5 µM	< 5 µM	–
Cn1cc(C(=O)/N=C(/Nc2cc(F)cc(Cl)c2)Nc2cc(-c3ccc(O)c(F)c3)n[nH]2)c(C(F)(F)F)n1 [Compound A-189]	< 5 µM	< 5 µM	–
Cc1cc(C(=O)/N=C(\Nc2cc(-c3ccc(F)cc3)n[nH]2)NC(C)(C)C)c(C)o1 [Compound A-190]	< 5 µM	5 to 16 µM	–
Cc1nc(C(=O)/N=C(\Nc2cc(-c3ccc(F)cc3)n[nH]2)NC(C)(C)C)c(C)o1 [Compound A-191]	> 16 µM	> 16 µM	–
Cc1cc(C(=O)/N=C(/NCC(C)C)Nc2cc(-c3ccc(F)cc3)n[nH]2)c(C)o1 [Compound A-192]	< 5 µM	5 to 16 µM	–
Cc1nc(C(=O)/N=C(/NCC(C)C)Nc2cc(-c3ccc(F)cc3)n[nH]2)c(C)o1 [Compound A-193]	5 to 16 µM	5 to 16 µM	–
CCOCC(C)N/C(=N/C(=O)c1nc(C)oc1C)Nc1cc(-c2ccc(F)cc2)n[nH]1 (stereo not shown) [Compound A-194]	> 16 µM	< 5 µM	–
